Tests used:
[1] = in vitro; type: in vitro ADME; settings: mouse, s9
Description: For the evaluation of combined phase I and phase II metabolic stability, the compound (1 μM) was incubated with 1 mg/mL pooled liver S9 fraction (Xenotech), 2 mM NADPH, 1 mM UDPGA, 10 mM MgCl2, 5 mM GSH and 0.1 mM PAPS at 37° C. for 0, 5, 15, 30 and 60 min. The metabolic stability of Testosterone (1 μM), verapamil (1 μM) and ketoconazol (1 μM) were determined in parallel to confirm the enzymatic activity of the S9 fraction. The incubation was stopped by precipitation of S9 enzymes with 2 volumes of cold acetonitrile containing internal standard (150 nM Diphenhydramine). Samples were stored on ice for 10 min and precipitated protein was removed by centrifugation (15 min, 4° C., 4,000 rpm). The remaining test compound at different time points was analyzed by LC-MS/MS (TSQ Quantum Access MAX, Thermo Fisher, Dreieich, Germany) and used to determine half-life (t½).

[2] = target: HDAC3 (Homo sapiens (Human), UniProt O15379); experiment: HDAC inhibition; type: biochemical; settings: read-out: Selectivity IC50 HDAC3
Chain of HDAC3 (O15379 whole entry, looked up): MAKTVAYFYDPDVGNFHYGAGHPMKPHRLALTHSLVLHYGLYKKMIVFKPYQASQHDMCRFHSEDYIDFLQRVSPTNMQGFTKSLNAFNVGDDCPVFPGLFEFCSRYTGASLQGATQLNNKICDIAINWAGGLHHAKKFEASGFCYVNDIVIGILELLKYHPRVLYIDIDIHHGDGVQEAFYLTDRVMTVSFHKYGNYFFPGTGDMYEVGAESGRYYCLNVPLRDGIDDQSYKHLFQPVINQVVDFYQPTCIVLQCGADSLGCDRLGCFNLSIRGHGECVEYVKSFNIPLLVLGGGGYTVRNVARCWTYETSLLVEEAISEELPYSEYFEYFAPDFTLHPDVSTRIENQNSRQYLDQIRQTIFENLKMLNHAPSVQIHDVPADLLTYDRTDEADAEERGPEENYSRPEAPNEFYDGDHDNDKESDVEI
Chain of HDAC3 (Q9Y618 whole entry partner, looked up): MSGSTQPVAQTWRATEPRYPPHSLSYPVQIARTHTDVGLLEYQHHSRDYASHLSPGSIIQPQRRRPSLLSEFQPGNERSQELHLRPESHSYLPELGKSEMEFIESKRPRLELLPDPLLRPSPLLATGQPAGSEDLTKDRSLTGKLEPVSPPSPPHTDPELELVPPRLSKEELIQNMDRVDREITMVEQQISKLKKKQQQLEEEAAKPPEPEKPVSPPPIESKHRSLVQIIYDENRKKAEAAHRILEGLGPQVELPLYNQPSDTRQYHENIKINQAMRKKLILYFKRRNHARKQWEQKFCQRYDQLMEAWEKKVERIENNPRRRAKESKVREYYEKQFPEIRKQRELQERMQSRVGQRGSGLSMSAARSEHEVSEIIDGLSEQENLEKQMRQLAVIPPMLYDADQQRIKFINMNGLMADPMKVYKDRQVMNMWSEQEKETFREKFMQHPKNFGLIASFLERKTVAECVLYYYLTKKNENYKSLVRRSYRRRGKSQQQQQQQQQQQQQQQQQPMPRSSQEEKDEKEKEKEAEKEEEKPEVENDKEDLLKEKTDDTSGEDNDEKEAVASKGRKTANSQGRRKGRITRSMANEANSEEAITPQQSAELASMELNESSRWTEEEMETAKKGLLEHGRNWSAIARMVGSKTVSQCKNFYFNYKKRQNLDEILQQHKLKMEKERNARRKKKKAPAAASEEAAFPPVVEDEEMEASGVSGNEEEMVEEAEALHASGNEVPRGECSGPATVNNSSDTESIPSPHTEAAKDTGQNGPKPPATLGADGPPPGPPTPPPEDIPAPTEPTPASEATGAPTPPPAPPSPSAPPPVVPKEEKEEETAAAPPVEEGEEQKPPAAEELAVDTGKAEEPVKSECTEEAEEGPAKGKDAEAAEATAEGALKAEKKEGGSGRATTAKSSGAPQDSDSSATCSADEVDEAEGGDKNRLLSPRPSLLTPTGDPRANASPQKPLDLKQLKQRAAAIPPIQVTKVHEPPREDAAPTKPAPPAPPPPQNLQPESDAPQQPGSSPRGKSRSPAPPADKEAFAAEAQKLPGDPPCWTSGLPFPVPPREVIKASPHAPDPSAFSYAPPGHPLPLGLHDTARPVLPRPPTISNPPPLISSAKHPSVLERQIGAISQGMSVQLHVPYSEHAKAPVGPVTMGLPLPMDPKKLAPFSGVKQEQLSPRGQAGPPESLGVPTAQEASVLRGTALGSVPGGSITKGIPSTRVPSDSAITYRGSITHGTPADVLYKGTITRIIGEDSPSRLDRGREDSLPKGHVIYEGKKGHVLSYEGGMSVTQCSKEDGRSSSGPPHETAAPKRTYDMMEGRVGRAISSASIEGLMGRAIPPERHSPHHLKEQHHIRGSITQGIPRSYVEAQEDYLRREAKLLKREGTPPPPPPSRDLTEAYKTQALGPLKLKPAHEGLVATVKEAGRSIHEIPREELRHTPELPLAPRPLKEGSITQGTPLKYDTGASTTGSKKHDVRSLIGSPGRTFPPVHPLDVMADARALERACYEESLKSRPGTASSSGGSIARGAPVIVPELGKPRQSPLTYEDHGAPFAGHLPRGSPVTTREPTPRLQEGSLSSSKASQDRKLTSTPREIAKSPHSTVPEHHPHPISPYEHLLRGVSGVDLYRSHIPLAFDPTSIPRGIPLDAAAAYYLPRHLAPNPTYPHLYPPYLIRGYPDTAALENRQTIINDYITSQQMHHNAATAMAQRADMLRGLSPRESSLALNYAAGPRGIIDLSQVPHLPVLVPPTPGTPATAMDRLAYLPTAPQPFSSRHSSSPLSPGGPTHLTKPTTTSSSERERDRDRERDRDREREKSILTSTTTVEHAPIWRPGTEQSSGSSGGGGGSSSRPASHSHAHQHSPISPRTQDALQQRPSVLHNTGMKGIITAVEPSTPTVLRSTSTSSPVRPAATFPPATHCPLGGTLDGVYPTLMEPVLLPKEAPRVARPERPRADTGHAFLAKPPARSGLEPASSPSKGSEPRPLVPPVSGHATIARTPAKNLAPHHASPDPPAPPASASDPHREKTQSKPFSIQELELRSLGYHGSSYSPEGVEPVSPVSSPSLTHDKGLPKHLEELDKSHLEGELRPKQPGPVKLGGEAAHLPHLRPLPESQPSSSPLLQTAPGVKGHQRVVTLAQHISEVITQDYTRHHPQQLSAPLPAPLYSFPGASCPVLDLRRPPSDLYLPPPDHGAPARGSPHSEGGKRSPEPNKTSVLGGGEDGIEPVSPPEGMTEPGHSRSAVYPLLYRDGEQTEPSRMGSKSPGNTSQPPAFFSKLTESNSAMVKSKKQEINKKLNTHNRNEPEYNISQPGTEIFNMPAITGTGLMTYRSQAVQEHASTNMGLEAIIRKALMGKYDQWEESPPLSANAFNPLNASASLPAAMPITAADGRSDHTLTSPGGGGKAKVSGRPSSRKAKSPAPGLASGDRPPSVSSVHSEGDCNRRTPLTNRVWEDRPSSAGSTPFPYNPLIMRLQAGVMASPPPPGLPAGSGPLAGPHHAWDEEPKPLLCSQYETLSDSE
Description: (§1) HDAC3 and HDAC8 Inhibitor Screening Assay kits were purchased from Sigma-Aldrich. The assay was performed according to the guidelines of the manufacturer using trichostatin as a positive control. Fluorescence signals were measured in a CLARIOstar plate reader (BMG Labtech).

[3] = target: HDAC8 (Homo sapiens (Human), UniProt Q9BY41); experiment: HDAC inhibition; type: biochemical; settings: read-out: Selectivity IC50 HDAC8
Chain of HDAC8 (Q9BY41 whole entry): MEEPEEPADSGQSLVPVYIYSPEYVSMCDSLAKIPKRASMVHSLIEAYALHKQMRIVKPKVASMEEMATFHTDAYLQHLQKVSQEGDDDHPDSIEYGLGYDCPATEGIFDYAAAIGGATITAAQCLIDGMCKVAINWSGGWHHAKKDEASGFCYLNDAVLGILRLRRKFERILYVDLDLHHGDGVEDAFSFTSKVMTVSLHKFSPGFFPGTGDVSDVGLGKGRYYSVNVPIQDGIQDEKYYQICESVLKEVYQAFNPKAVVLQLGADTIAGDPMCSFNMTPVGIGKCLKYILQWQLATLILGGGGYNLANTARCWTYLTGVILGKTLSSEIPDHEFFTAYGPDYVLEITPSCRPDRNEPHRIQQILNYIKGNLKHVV
Description: as §1

[4] = Kinetic turbidimetric solubility assay; type: physicochemical; settings: PBS, aqueous buffer, kinetic from dmso stock
Description: The desired compounds were sequentially diluted in DMSO in a 96-well plate. 1.5 μL of each well were transferred into another 96-well plate and mixed with 148.5 μL of PBS. Plates were shaken for 5 min at 600 rpm at room temperature, and the absorbance at 620 nm was measured. Absorbance values were normalized by blank subtraction and plotted using GraphPad Prism 8.4.2 (GraphPad Software, San Diego, CA, USA). Solubility (S) was determined based on the First X value of AUC function using a threshold of 0.005.

[5] = target: purified LasB (Pseudomonas aeruginosa (strain ATCC 15692 / DSM 22644 / CIP 104116 / JCM 14847 / LMG 12228 / 1C / PRS 101 / PAO1), UniProt P14756); experiment: Ex vivo lung homogenate assay with purified LasB; type: biochemical
Chain of purified LasB (P14756 198-498): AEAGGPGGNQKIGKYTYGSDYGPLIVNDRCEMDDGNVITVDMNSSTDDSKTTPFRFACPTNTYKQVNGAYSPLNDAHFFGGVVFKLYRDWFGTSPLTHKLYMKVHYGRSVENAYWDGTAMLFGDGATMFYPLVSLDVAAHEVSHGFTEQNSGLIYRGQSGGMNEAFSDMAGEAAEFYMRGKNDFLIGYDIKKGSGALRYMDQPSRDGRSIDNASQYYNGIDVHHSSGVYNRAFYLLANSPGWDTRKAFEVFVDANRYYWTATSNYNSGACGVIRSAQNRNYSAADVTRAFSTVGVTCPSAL
Description: The lung homogenate was prepared from pig lung, which was stored at −80° C. After thawing the lung tissue was cut into pieces of approximately 1.5 cm diameter and 0.5 to 1 cm thickness. Subsequently the bits were flash frozen in liquid nitrogen and lyophilized for 48 h.
1.2 g dried tissue was then ball milled using an IKA Tube Drive and the respective 50 mL ball milling tubes. 20 steel balls were used with target rpm of 6000, reversing the spinning direction every 30 seconds for a total of 10 min. After 10 min the tube was detached and inverted to loosen the powder. The ball milling was repeated with the same setup twice again.
To the powdery tissue 50 mL of a 10 mM Tris buffer including 2 mM CaCl2 with a pH of 8.0 was added and the IKA Tube Drive used again with the same settings as described before for 10 min to disperse the tissue powder in the aqueous buffer. The yielded lung homogenate was pipetted into 15 mL falcons and stored at −80° C. until further use.
To perform the LasB activity/inhibition assay a compound dilution was prepared in DMSO yielding a 100 fold concentration of the final concentration in the assay. LasB was diluted from a higher stock solution to a 6 μM stock in the same buffer as used for the lung homogenate. The assay was performed in Eppis. With a stepper pipette 10 μL of the prepared LasB solution was added to the Eppis to yield a final protein concentration of 300 nM. Then 188 μL of thawed lung homogenate was added with a stepper pipette. Finally, 2 μL of the 100 fold compound dilutions were added and mixed by pipetting up and down. The Eppis were incubated at 37° C. with a shaking speed of 1000 rpm for 4 h.
After 4 h, the Eppis were centrifuged at a speed of 14,000 rpm, 4° C. for 10 min to separate the soluble cleaved Elastin fragments from the non-cleaved insoluble part. 100 μL of the obtained supernatant was transferred to new Eppis, and the same volume of concentrated hydrochloric acid added. […]
Peak areas and response ratios were calculated using Xcalibur Quan browser with Amprolium set as internal standard. […]

Q: Which results are given for CC(C)CC(C(=O)NO)C(=O)Nc1ccc(Cn2cc(CNS(=O)(=O)CC(C)C)nn2)cc1 (centres unmarked) [Compound 169, 2-(Hydroxycarbamoyl)-N-[4-[[4-[(isobutylsulfonylamino)methyl]triazol-1-yl]methyl]phenyl]-4-methyl-pentanamide]?
A: half-life at 1 μM [1]: > 2 h; IC50 [2]: > 100 µM; IC50 [3]: > 100 µM; solubility at 5 min [4]: > 200 µM; IC50 [5]: 0.077 µM
